The values below come from ChEMBL document CHEMBL4251572, “Novel aminopyrimidinyl benzimidazoles as potentially antimicrobial agents: Design, synthesis and biological evaluation” (Eur J Med Chem, 2018).

In brackets after ≈: the same amount, converted by molar mass.

The test system of experiment [1] is Staphylococcus aureus. The experiment is described as follows: Antibacterial activity against Staphylococcus aureus ATCC 25923 after 24 hrs by micro broth dilution assay. In kind it is functional. Particulars: ATCC 25923, 24 h.
Experiment [2] deals with Staphylococcus aureus. The experiment is described as follows: Antibacterial activity against methicillin-resistant Staphylococcus aureus N315 after 24 hrs by micro broth dilution assay. In kind it is functional. Particulars: N315, 24 h.
Experiment [3] deals with Bacillus subtilis. The experiment is described as follows: Antibacterial activity against Bacillus subtilis after 24 hrs by micro broth dilution assay. Type of experiment: functional.
The subject of experiment [4] is Micrococcus luteus. Description: Antibacterial activity against Micrococcus luteus ATCC4698 after 24 hrs by micro broth dilution assay. Type of experiment: functional. Particulars: ATCC4698, 24 h.
Experiment [5] relates to Bacillus. Description: Antibacterial activity against Bacillus proteus ATCC 13315 after 24 hrs by micro broth dilution assay. Type of experiment: functional. Particulars: ATCC 13315, 24 h.
The test system of experiment [6] is Escherichia coli. Description: Antibacterial activity against Escherichia coli DH52 after 24 hrs by micro broth dilution assay. In kind it is functional. Particulars: DH52, 24 h.
The test system of experiment [7] is Pseudomonas aeruginosa. The experiment is described as follows: Antibacterial activity against Pseudomonas aeruginosa after 24 hrs by micro broth dilution assay. Type of experiment: functional.
Experiment [8] concerns Salmonella typhi. Description: Antibacterial activity against Bacillus typhi after 24 hrs by micro broth dilution assay. In kind it is functional, Salmonella enterica subsp. enterica serovar Typhi. Particulars: Salmonella enterica.
For experiment [9], the system named is Escherichia coli. The experiment is described as follows: Antibacterial activity against Escherichia coli JM109 after 24 hrs by micro broth dilution assay. Type of experiment: functional. Particulars: JM109, 24 h.
For experiment [10], the system named is Shigella dysenteriae. The experiment is described as follows: Antibacterial activity against Shigella dysenteriae after 24 hrs by micro broth dilution assay. Type of experiment: functional.
The test system of experiment [11] is Candida albicans. Description: Antifungal against Candida albicans ATCC 76615 after 24 hrs by two fold serial dilution method. Particulars: ATCC 76615, 24 h. Type of experiment: functional.
Experiment [12] deals with Pichia norvegensis. Description: Antifungal against Candida mycoderma after 24 hrs by two fold serial dilution method. In kind it is functional.
The subject of experiment [13] is Cyberlindnera jadinii. Description: Antifungal against Candida utilis after 24 hrs by two fold serial dilution method. Type of experiment: functional. Particulars: Williopsis jadinii.
The subject of experiment [14] is Saccharomyces cerevisiae. The experiment is described as follows: Antifungal against Saccharomyces cerevisiae after 24 hrs by two fold serial dilution method. Type of experiment: functional.
In experiment [15] the test system is Aspergillus flavus. The experiment is described as follows: Antifungal against Aspergillus flavus after 24 hrs by two fold serial dilution method. Type of experiment: functional.

`CCCCn1c(-c2cc(-c3ccc(Cl)cc3Cl)nc(N)n2)nc2ccccc21`: the MIC in experiment [1] is 512 µg/mL (≈ 1240 µM); in experiment [2], 512 µg/mL (≈ 1240 µM); in [3] it was 512 µg/mL (≈ 1240 µM); in experiment [4], 16 µg/mL (≈ 38.8 µM); in [5], 512 µg/mL (≈ 1240 µM); in [6], 512 µg/mL (≈ 1240 µM). Moreover, the MIC turned out to be 128 µg/mL (≈ 310 µM) in experiment [7]; 512 µg/mL (≈ 1240 µM) in [8]; 32 µg/mL (≈ 77.6 µM) in experiment [9]; 256 µg/mL (≈ 621 µM) in [10]; 512 µg/mL (≈ 1240 µM) in experiment [11]; 32 µg/mL (≈ 77.6 µM) in experiment [12]. The values for the minimum inhibitory concentration (MIC) in experiment [13], in experiment [14] and in experiment [15] were 64 µg/mL (≈ 155 µM), 32 µg/mL (≈ 77.6 µM) and 512 µg/mL (≈ 1240 µM), respectively.

Turning to `CCCCCCCCn1c(-c2cc(-c3ccc(Cl)cc3Cl)nc(N)n2)nc2ccccc21`, the minimal inhibitory concentration (MIC) in [1] was determined as 256 µg/mL (≈ 547 µM); in [2], 256 µg/mL (≈ 547 µM); in experiment [3], 512 µg/mL (≈ 1090 µM); in experiment [4] it was 32 µg/mL (≈ 68.3 µM); in experiment [5], 4 µg/mL (≈ 8.54 µM); in [6] it was 512 µg/mL (≈ 1090 µM). The MIC in experiment [7], in experiment [8], in experiment [9], in experiment [10], in experiment [11] and in [12] was 512 µg/mL (≈ 1090 µM) each time. Moreover, the MIC worked out at 8 µg/mL (≈ 17.1 µM) in experiment [13], 16 µg/mL (≈ 34.2 µM) in experiment [14] and 512 µg/mL (≈ 1090 µM) in experiment [15].

Turning to `O=C(/C=C/c1ccc(F)cc1)c1nc2ccccc2[nH]1`, the MIC in experiment [1] was determined as 16 µg/mL (≈ 60.1 µM); in experiment [2], 64 µg/mL (≈ 240 µM); in experiment [3] it was 64 µg/mL (≈ 240 µM); in [4], 16 µg/mL (≈ 60.1 µM); in experiment [5], 32 µg/mL (≈ 120 µM); in experiment [6] it was 64 µg/mL (≈ 240 µM). The minimal inhibitory concentration (MIC) in experiment [7] stood at 128 µg/mL (≈ 481 µM); in experiment [8], 32 µg/mL (≈ 120 µM); in experiment [9] it was 16 µg/mL (≈ 60.1 µM); in experiment [10], 256 µg/mL (≈ 961 µM); in experiment [11] it was 128 µg/mL (≈ 481 µM); in experiment [12] it was 128 µg/mL (≈ 481 µM). The minimum inhibitory concentration (MIC) in [13] was over 512 µg/mL; in experiment [14], 4 µg/mL (≈ 15 µM); in experiment [15], 512 µg/mL (≈ 1920 µM).

With `CCCCCCCn1c(C(=O)/C=C/c2ccc(C)cc2)nc2ccccc21`, the MIC in [1] worked out at 4 µg/mL (≈ 11.1 µM); in experiment [2], 8 µg/mL (≈ 22.2 µM); in [3], 512 µg/mL (≈ 1420 µM); in [4] it was 512 µg/mL (≈ 1420 µM); in experiment [5], 512 µg/mL (≈ 1420 µM); in experiment [6], 512 µg/mL (≈ 1420 µM). For the same compound, the MIC was 512 µg/mL (≈ 1420 µM) in experiment [7]; 512 µg/mL (≈ 1420 µM) in [8]; 512 µg/mL (≈ 1420 µM) in [9]; 512 µg/mL (≈ 1420 µM) in experiment [10]; 16 µg/mL (≈ 44.4 µM) in experiment [11]; 512 µg/mL (≈ 1420 µM) in [12]. The MIC in experiment [13], in experiment [14] and in [15] was 512 µg/mL (≈ 1420 µM) each time.

Turning to `CCCCCCn1c(C(=O)/C=C/c2ccc(Cl)cc2Cl)nc2ccccc21`, the minimal inhibitory concentration (MIC) stood at 32 µg/mL (≈ 79.7 µM) in experiment [1]; 256 µg/mL (≈ 638 µM) in experiment [2]; 512 µg/mL (≈ 1280 µM) in [3]; 512 µg/mL (≈ 1280 µM) in [4]; 512 µg/mL (≈ 1280 µM) in [5]; 512 µg/mL (≈ 1280 µM) in [6]. The MIC in experiment [7], in experiment [8], in experiment [9], in experiment [10], in experiment [11] and in experiment [12] was 512 µg/mL (≈ 1280 µM) in each case. Also, the minimum inhibitory concentration (MIC) in [13], in experiment [14] and in experiment [15] was 512 µg/mL (≈ 1280 µM) each time.

On to `CCCCCCn1c(-c2cc(-c3ccc(C)cc3)nc(N)n2)nc2ccccc21`, for which the MIC in experiment [1] was determined as 128 µg/mL (≈ 332 µM); in experiment [2] it was 16 µg/mL (≈ 41.5 µM); in experiment [3], 128 µg/mL (≈ 332 µM); in experiment [4], 16 µg/mL (≈ 41.5 µM); in experiment [5] it was 16 µg/mL (≈ 41.5 µM); in experiment [6], 32 µg/mL (≈ 83 µM). Moreover, the minimal inhibitory concentration (MIC) in experiment [7] stood at 64 µg/mL (≈ 166 µM); in [8], 16 µg/mL (≈ 41.5 µM); in experiment [9] it was 16 µg/mL (≈ 41.5 µM); in [10], 256 µg/mL (≈ 664 µM); in experiment [11], 32 µg/mL (≈ 83 µM); in [12], 8 µg/mL (≈ 20.8 µM). The MIC in experiment [13] is 8 µg/mL (≈ 20.8 µM); in experiment [14] it was 16 µg/mL (≈ 41.5 µM); in [15], 512 µg/mL (≈ 1330 µM).

Take `OC(Cn1cncn1)(Cn1cncn1)c1ccc(F)cc1F` [FLUCONAZOLE]: the minimal inhibitory concentration (MIC) in [11] amounted to 1 µg/mL (≈ 3.27 µM); in [12] it was 4 µg/mL (≈ 13.1 µM); in experiment [13] it was 16 µg/mL (≈ 52.2 µM); in [14], 8 µg/mL (≈ 26.1 µM); in [15], 256 µg/mL (≈ 836 µM).
